pEC50, pIC50: −log10 of the molar value.

In experiment [1] the target is T1, DHODH (Homo sapiens (Human), UniProt Q02127). Kind of experiment: Measurement of DHODH inhibitory enzyme activity (coupled DCIP reduction assay). The class given is biochemical. The text has this:
Measurement of DHODH Inhibitory Enzyme Activity (In Vitro Assays)
The DHODH activity assay is a coupled enzyme assay in which oxidation of DHO and subsequent reduction of ubiquinone are stoichiometrically equivalent to the reduction of DCIP ([…]). The reduction of DCIP is accompanied by a loss of absorbance at 610 nm.
Reagents used: L-Dihydroorotic acid, Sigma, D7128, 2,6-Dichloroindophenol sodium salt hydrate, sigma, D1878 Dimethyl sulfoxide (DMSO), spectroscopic grade purchased from Spectrochem, cat no. 0704209, B. no.—3183650 Decylubiquinone, Sigma, D7911.
Preparation of Solutions/Reagents:
Buffer Preparation: 50 mM tris HCl, 150 mM KCl, and pH 8.0, 0.8% triton.
L-Dihydroorotic acid stock solution of 20 mM in buffer.
2, 6-Dichloroindophenol Sodium salt hydrate stock solution of 20 mM in buffer.
Decylubiquinone stock solution of 20 mM in buffer.
5 μL of Dimethyl sulfoxide or a compound of formula (I) in DMSO solution was added to the wells of a 96 well plate. Compounds of formula (I) were measured at 10 μM.
Protein along with buffer was added, so that the total volume including the DMSO was 87 μL. Compound and protein were incubated for half an hour at room temperature after mixing. 5 μL of 20 mM solution of L-Dihydroorotic acid, 5 μL of 2 mM solution of Decylubiquinone and 3 μL of 2 mM solution of 2, 6-Dichloroindophenol sodium salt hydrate were added to the above solution (total assay volume 100 μL). The mixture was stirred for 2 min and absorbance was recorded at every 10 min at 610 nanometers.
Percent inhibition is calculated as follows 100*{(Abs610 for reaction containing compound)−(Abs610 for positive control) (Abs610 for no enzyme reaction)−(Abs610 for positive control) Reaction containing compound has compound, buffer, enzyme and substrates Positive control contains DMSO, buffer, enzyme and substrates No Enzyme reaction contains DMSO, buffer and substrates IC50 determination: A 2 mM DMSO stock solution of the selected 1, 4, 6-trisubstituted-2-alkyl-1H-benzo[d]imidazole derivatives of formula (I) of the present invention to be examined was prepared. Subsequent ⅓rd dilutions were made as follows:
5 μL of each stock of compound of formula (I) (solution indicated in column 4 of table) was used for each 100 μL assay. Therefore, 5 μL of the 2 mM stock provided 100 μL of 100 μM solution of compound of formula (I), when made up with buffer, protein and substrate. See also: Ulrich et al. (2001) Eur. J. Biochem. 268, 1861-1868.

For a further experiment, the system named is Jurkat cells. In words: Measurement of cell proliferation activity (Jurkat cell), XTT assay. It counts as cell-based. Conditions: Homo sapiens, 72 hrs incubation, cell viability by XTT assay. The text has this:
Measurement of Cell Proliferation Activity (Jurkat Cell)
Jurkat cells are an immortalized cell line of T lymphocyte cells, which are used to study acute T cell leukaemia, T cell signalling, and the expression of various chemokine receptors susceptible to viral entry, particularly HIV. Jurkat cells are also useful in science because of their ability to produce interleukin 2. Their primary use, however, is to determine the mechanism of differential susceptibility of cancers to drugs and radiation.
Jurkat cells are cultured in RPMI medium with 10% FBS, and seeded at a density of 100,000 cells per well in a 96 well plate. Compound is added at different concentrations (typically starting at 10 μM followed by half log dilutions for a total of 8-10 concentrations). Each concentration is tested in triplicate and DMSO concentration is kept constant at 0.25-0.5%. The cells are then incubated in a CO2 incubator at 37° C. for 72 hrs before determining cell viability using XTT assay. Cell viability is plotted as a function of concentration and EC50 is determined using GraphPad Prism software
• Roehm, N et al [1991] An improved colorimetric assay for cell proliferation and viability utilizing the tetrazolium salt XTT. J. Immunol. Methods 142:257-265. Reagents: Roswells park memorial institute's medium, (RPMI-1640 complete media) pH-7.4±0.2 (Sigma R6504). • Dimethyl sulfoxide (DMSO), spectroscopic grade purchased from Spectrochem, (cat no. 0704209, B. no.—3183650 MEM Cat. No. M0268, Sigma). Fetal Bovine Serum (Cat. No. F9665, Sigma Aldrich). XTT sodium salt (Sigma Cat. No. X4251). PMS (Sigma Cat. No. 68600). Preparation of Solutions/Reagents
RPMI media supplemented with antibiotics, 10% FBS, Sodium Pyruvate and NEA (non essential amino acids).
XTT—A freshly prepared solution of XTT is made in the growth medium, with a final concentration of 1 mg/ml.
PMS—Stock is prepared with 1×PBS at 0.383 mg/ml and stored in aliquots at −20° C. The XTT solution at 20 μl/ml was added just before use.
Test solution—Serially diluted DMSO solutions are further diluted with media to 2× the required concentration in well.
Culture Jurkat cells in T-25 flasks at a density of 0.2×10^6/ml 2-3 days before the day of experiment set up.
Centrifuge Jurkat T-cell suspension at 1200 rpm for 10 minutes and resuspend cells again in fresh RPMI medium with 10% FBS. Count the cells and dilute suspension to a density of 2×10^6 cells/ml. Seed 50 μL of this suspension in each well of a 96 well plate (100,000 cells per well). Keep the edges of the plate empty to avoid evaporation. […]
XTT assay: to each well, add 50 μL of 1 mg/ml XTT solution with 20 μl of PMS/mL. Read the plates after 2 hours at 465 nm using the spectrophotometer. XTT reading for media without cells is used as background reading. […]

Experiment [2] has as its target T1, DHODH. Particulars: DHODH versus protein tyrosine kinase; cited from earlier work.

T1 sequence (Q02127 whole entry): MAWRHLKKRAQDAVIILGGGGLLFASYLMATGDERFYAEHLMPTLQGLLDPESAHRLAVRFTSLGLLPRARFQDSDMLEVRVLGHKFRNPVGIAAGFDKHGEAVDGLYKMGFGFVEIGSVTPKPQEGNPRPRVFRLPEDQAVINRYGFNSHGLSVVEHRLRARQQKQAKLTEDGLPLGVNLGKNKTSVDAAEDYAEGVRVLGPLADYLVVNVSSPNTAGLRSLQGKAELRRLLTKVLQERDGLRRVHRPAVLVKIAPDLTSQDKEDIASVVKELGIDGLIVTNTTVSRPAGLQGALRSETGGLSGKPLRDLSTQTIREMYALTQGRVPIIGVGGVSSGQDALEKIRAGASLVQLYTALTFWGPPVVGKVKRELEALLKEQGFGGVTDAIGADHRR

One may read the pIC50 as −log10 of the IC50, conventionally taken in molar units. The low end stands for a large IC50, the high end for a small IC50. For orientation: pEC50 means −log10 of the EC50, conventionally taken in molar units. Lower therefore signals a large EC50. On DHODH [1], `Cc1nc2c(C(=O)O)cc(-c3ccc(-c4ccccc4)cc3)cc2[nH]1` [Example 1, 6-([1,1'-biphenyl]-4-yl)-2-methyl-1H-benzo[d]imidazole-4-carboxylic acid] had a pIC50 of 7.00 to 8.00. This molecule also showed a pEC50 in the experiment on Jurkat cells of 6.88. On to `Cc1nc2c(C(=O)O)cc(-c3ccc(-c4ccccc4F)cc3)cc2[nH]1` [Example 5, 6-(2'-fluoro-[1,1'-biphenyl]-4-yl)-2-methyl-1H-benzo[d]imidazole-4-carboxylic acid], for which the pIC50 on DHODH [1] was 7.00 to 8.00. For the same molecule, in the experiment on Jurkat cells, the pEC50 is 7.31. In turn, `COc1cccc(-c2ccc(-c3cc(C(=O)O)c4nc(C)[nH]c4c3)cc2)c1` [Example 10, 6-(3'-methoxy-[1,1'-biphenyl]-4-yl)-2-methyl-1H-benzo[d]imidazole-4-carboxylic acid] had a pIC50 on DHODH [1] of 7.00 to 8.00. This molecule gave a pEC50 in the experiment with Jurkat cells of 7.49.

Take `COc1ccccc1-c1ccc(-c2cc(C(=O)O)c3nc(C)[nH]c3c2)cc1` [Example 18, 6-(2'-methoxy-[1,1'-biphenyl]-4-yl)-2-methyl-1H-benzo[d]imidazole-4-carboxylic acid]: the pIC50 against DHODH [1] was 7.00 to 8.00. The negative-log EC50 (pEC50) with Jurkat cells was 6.95. As for `Cc1nc2c(C(=O)O)cc(-c3ccc(-c4ccccc4CN4CC[C@@H](F)C4)cc3)cc2[nH]1` [Example 117, (R)-6-(2'-((3-fluoropyrrolidin-1-yl)methyl)-[1,1'-biphenyl]-4-yl)-2-methyl-1H-benzo[d]imidazole-4-carboxylic acid.2,2,2-trifluoroacetic acid], the pIC50 against DHODH [1] was 8.00 to 9.00. At DHODH [1], `Cc1nc2c(C(=O)O)cc(-c3ccc(-c4c(C)cccc4C)cc3)cc2[nH]1` [Example 145, 6-(2',6'-dimethyl-[1,1'-biphenyl]-4-yl)-2-methyl-1H-benzo[d]imidazole-4-carboxylic acid] had a negative logarithm of the IC50 (pIC50) of 7.00 to 8.00. On to `Cc1nc2c(C(=O)O)cc(-c3ccc(-c4c(F)cccc4CN4CCCC4)cc3)cc2[nH]1` [Example 150, 6-(2'-fluoro-6'-(pyrrolidin-1-ylmethyl)-[1,1'-biphenyl]-4-yl)-2-methyl-1H-benzo[d]imidazole-4-carboxylic acid.2,2,2-trifluoroacetic acid], for which the pIC50 against DHODH [1] was 8.00 to 9.00. Consider `C/C(O)=C(\C#N)C(=O)Nc1ccc(C(F)(F)F)cc1` [Teriflunomide], for which the “fold greater inhibitor of DHODH than of protein tyrosine kinase” value on DHODH [2] is given as 100-1,000 fold.

The record behind these values is US11028054B2, “1, 4, 6-trisubstituted-2-alkyl-1H-benzo[d]imidazole derivatives as dihydroorotate oxygenase inhibitors” (Merck Patent GmbH, priority 2017, dated 2021).
